According to patent publication US11998008B2, “Pesticides and methods of controlling pests” (The State of Israel, Ministry of Agriculture & Rural …, priority 2017, dated 2024):

What was measured:
tomato seedlings = assay: Phytotoxicity: growth of tomato seedlings in treated sandy soil in pots; format: in vivo; details: soil treated with 54 ppm, nine days
Experimental: Sandy soil from a plot that was treated with 54 ppm of trans-2-octenal was removed to small pots in which either seeds of corn, cotton, and peanut were sown (FIGS. 16A-16C) or tomato seedlings were planted therein (FIG. 16E).

Solanum nigrum seeds = assay: Viability of weed seeds buried in sandy soil; format: in vivo; details: 54 ppm of emulsion, depth 10 cm, 6 days in soil, evaluated 6 days after resowing
Experimental: The effect of trans-2-octenal was also examined on the weed Solanum nigrum. To this end, 20 seeds of this weed were put in tea bags and buried in sandy soil at the depth of 10 cm. Six (6) days later, 54 ppm of emulsion of trans-2-octenal were applied via the irrigation system. After additional 6 days the seeds were removed from the soil and sown in fresh loam pots. A control experiment was performed as above except that the seeds were irrigated with tap water without the compound. The viability of the seeds was evaluated after 6 days.

chlamydospores of Forl = assay: Open field experiment in sandy soil; format: in vivo, Fusarium oxysporum f sp. radicis-lycopersici; details: emulsion, 54 ppm active compound, 6 days
Experimental: In this experiment, an emulsions of trans-2-octenal (25% active compound) such as those described in Example 9 were used. The soil was inoculated with chlamydospores of Forl and sclerotia of S. rolfsii. Five gram of soil, highly inoculated with chlamydospores were wrapped in nylon tights and buried in the field at depths of 10, 30, and 50 cm. Tea bags containing 50 S. rolfsii sclerotia were prepared as described above and buried similarly. After 6 days, trans-2-octenal emulsion, at concentration of 54 ppm (active compound) was applied using the irrigation system. The same conditions were applied to a control plot except that the plot was irrigated with tap water without the compound. The plots were left open during the time of the experiment. After 6 days, the pathogens were removed from the soil and their viability was examined using PDA+tet culture plates. […] As shown in these figures, elimination of both phytopathogenic fungi occurred at the lowest depth of 10 cm.

[1] = test system: lettuce seedling strain Raviv; details: in vivo, 11 days
Experimental: An experiment in a larger scale was performed in loam soil in which the seedling were planted directly in the treated plot. The soil was treated with 0, 25, 50, 100, 200, 400, 800, and 1,600 ppm of emulsion of trans-2-octenal. The compound was applied using the irrigation system. A day later, tomato seedling strains Ikram and Abigail and lettuce seedling strain Raviv (10 seedlings each) were planted into the treated soil of each concentration. Eleven days later, the number of viable seedlings was counted.

[2] = test system: Fusarium oxysporum f sp. radicis-cucumerinum (FORC); assay: Effect on FORC in loam soil in buckets; format: in vivo
Experimental: The activity of trans-2-octenal was examined against phytopathogenic fungi and weeds. The experiment was performed in large buckets (110 L), which bottoms were removed, and therefore the loam in the bucket was continuous with the ground. The soil was inoculated one day prior the application of the compound. Soil inoculation was performed as follows: spores of Fusarium oxysporum f sp. radicis-cucumerinum (FORC) were collected from culture plates and 25 mL of spore suspension at concentration of 9×10^5 was mixed with 10 L of tap water and then poured on the soil of each bucket. […] Half of the buckets were sealed with nylon while the other half remained open. Five days later, soil samples from three different depths (10, 20, and 30 cm) were taken from each bucket for fungal isolation and determination of fungal survival. […] After 3 days, the number of colonies was counted. […] Similar results were obtained at close condition, except at depth 30 cm at concentration of 62.5 ppm.

CCCCC/C=C/C=O [trans-2-octenal]
growth of the tomato seedling in treated versus untreated soil (tomato seedlings): no significant difference
viability of the seeds (Solanum nigrum seeds): eliminated seeds viability
viability of Forl chlamydospores (chlamydospores of Forl; 30 and 50 cm depth): No elimination
viability of Forl chlamydospores (chlamydospores of Forl; depth 10 cm, open plot): elimination
concentration at which significant phytotoxic effect occurred [1]: 400 ppm
concentration sufficient to eliminate FORC ([2]; close condition, except at depth 30 cm): 62.5 ppm
concentration sufficient to eliminate FORC ([2]; open conditions, all depths examined (10, 20, 30 cm), 5 days): 62.5 ppm
